Converted amounts (≈) assume the structure as drawn.
Details: buffer; pH 7.4; 200.0 µM

solubility kinetic [µg/mL] | Structure (SMILES)
> 38.3 | Cc1cc(C)cc(NC(=O)NCc2ccccn2)c1
> 45 | CCn1c(CO)nc2c1c(=O)[nH]c(=O)n2Cc1ccccc1
> 38.9 | CSc1ncccc1C(=O)Nc1ccc(C)cn1
33.8 (≈ 97.2 µM) | OC(COc1ccc(Cl)cc1)CN1CCN(c2ccccn2)CC1 (stereo unspecified)
8.4 (≈ 28.1 µM) | C/C(=N\O)c1ccn(S(=O)(=O)c2ccc(Cl)cc2)c1
< 0.4 | Cc1ccc(NC(=O)Cn2cc(C(=O)C3CC3)c3ccccc32)c(C)c1
35.5 (≈ 121 µM) | CN1CCN(CC(O)COc2ccc(C(=O)O)cc2)CC1 (stereo unspecified)
> 48.7 | CC(=O)c1ccc(N2CCN(CC(O)c3ccccc3)CC2)cc1 (stereo unspecified)
46.1 (≈ 131 µM) | CCOC(=O)C1(CC2CC2)CCN(Cc2cnc(N(C)C)s2)CC1
> 30.2 | [O-][n+]1ccc(OCc2ccccc2)cc1
25.4 (≈ 62.8 µM) | CN(Cc1cccc(F)c1)C(=O)c1ccc(S(=O)(=O)N2CCCCCC2)cc1
> 26.3 | CCc1nn(C)c(N)c1C.Cl
49.4 (≈ 149 µM) | O=C(CS(=O)c1ccc(Br)cc1)N1CCOCC1 (stereo unspecified)
0.5 (≈ 1.61 µM) | S=C(NCc1ccccc1)N1CCN(c2ccccc2)CC1
> 46.9 | COc1ccccc1NC(=O)C1CCN(S(C)(=O)=O)CC1
13.2 (≈ 36.3 µM) | COc1ccc(NS(=O)(=O)c2cc(N)ccc2N2CCOCC2)cc1
> 36.2 | O=C1Nc2ccccc2C1(O)c1ccccc1O (stereo unspecified)
> 42.9 | S=C(NCc1ccc(Cl)cc1)NN1CCOCC1
> 41.6 | COc1ccc(C(C)NC(=O)C2CCCC2)cc1OC (stereo unspecified)
< 0.5 | O=C1c2ccccc2-c2nc3ccccc3cc21
21.9 (≈ 69 µM) | O=C(Nc1cccc(NC(=O)c2cccnc2)c1)c1ccccc1
40.7 (≈ 140 µM) | O=C(Nc1nccs1)C1CC(=O)N(Cc2ccco2)C1 (stereo unspecified)
> 29.4 | NC(=S)Nc1ccc2c(c1)OCO2
> 40.5 | Cc1cc(=O)[nH]c(-c2ccccc2OC(F)(F)F)n1
> 36.4 | CC(C)(C)CC(=O)NCCCN1CCOCC1
> 48.1 | O=C(NCCCN1CCCC1=O)c1cc2c(s1)CCCCC2
> 62.6 | COc1cccc(CNC(C)C(=O)Nc2ccc(S(=O)(=O)N3CCCC3)cc2)c1 (stereo unspecified)
> 51.1 | O=C(C[n+]1ccccc1)Nc1ccc(Oc2ccccc2)cc1.[Cl-]
< 0.2 | CN(C)c1ccc(NC(=S)c2ccc3ccccc3n2)cc1
2.2 (≈ 6.56 µM) | Cc1cc(C(=O)Nc2ccc(S(=O)(=O)N3CCCC3)cc2)no1

More lines, now with the values behind:

Structure (SMILES) | solubility kinetic [µg/mL]
CC(=O)Nc1nc2c(C)cc(NC(=O)C3CCCCC3)cc2s1 | 0.7 (≈ 2.11 µM)
Cc1nc(N)sc1C(=O)OCC(C)C | > 32.1
CC(C)N1CCN(Cc2ccncc2)CC1CCO (stereo unspecified) | 24.3 (≈ 92.3 µM)
O=C1CCc2ccccc2N1Cc1ccccc1 | 32.5 (≈ 137 µM)
CCc1ccc(N2C(=O)C3C4C=CC(CC4)C3C2=O)cc1 (stereo unspecified) | 14.3 (≈ 50.8 µM)
COc1ccccc1N(CC1CO1)S(=O)(=O)c1ccc(C)cc1 (stereo unspecified) | 47.5 (≈ 142 µM)
O=C(c1c(F)cccc1F)N(Cc1ccccc1)Cc1ccccc1 | 8.4 (≈ 24.9 µM)
Cc1ccn2cc(-c3cccc([N+](=O)[O-])c3)nc2c1 | 5.7 (≈ 22.5 µM)
COc1ccc(NS(=O)(=O)c2ccc3c(c2)CCO3)cc1 | 45 (≈ 147 µM)
CCCN1CN=C(NS(=O)(=O)c2ccc(C)cc2)NC1 | > 44.5
COc1cccc(C2NC(=O)CCC2[N+](=O)[O-])c1 (stereo unspecified) | > 37.5
CC(NC(=O)COc1cccnc1[N+](=O)[O-])c1ccc(F)cc1 (stereo unspecified) | > 47.9
O=C(CC1SC(N2CCOCC2)=NC1=O)Nc1ccc(F)cc1 (stereo unspecified) | > 50.6
CCOc1ccc(Nc2ncnc3ccc([N+](=O)[O-])cc23)cc1 | 4.1 (≈ 13.2 µM)
CC(=O)c1sc2nsc(SCCN3CCOCC3)c2c1N | > 51.5
Cc1cc(Br)ccc1NC(=O)CN(C)C(=O)C1=COCCO1 | > 55.4
CNC(=O)c1c(NC(=O)c2ccco2)sc(C)c1C | 11.6 (≈ 41.7 µM)
COc1cc(NS(=O)(=O)c2cc(C(=O)NCCc3ccccn3)ccc2OC)cc(OC)c1 | 66.4 (≈ 141 µM)
CC(Oc1ccc(F)cc1)C(=O)N1CCN(c2ncccn2)CC1 (stereo unspecified) | > 49.6

Structure (SMILES) | solubility kinetic [µg/mL]
O=C1ON=C(c2ccccc2)/C1=C/c1cccnc1 | 35.8 (≈ 143 µM)
COc1cccc(C(=O)Nc2cccc(-c3ccccc3)c2)c1 | 2.5 (≈ 8.24 µM)
Cc1ccc(-n2c(/C=C/c3ccccn3)nc3ccccc3c2=O)cc1 | 0.6 (≈ 1.77 µM)
Cn1cncc1COC(=O)c1ccc(Cl)cc1 | > 37.6
O=C(c1ccc(Cl)c([N+](=O)[O-])c1)N1CCCc2ccccc21 | 23.7 (≈ 74.8 µM)
FC(F)(F)c1cccc(CN2CCSCC2)c1 | < 0.6
COc1ccc(NC(=O)C2=C(C)NC(=O)NC2c2ccccc2[N+](=O)[O-])cc1 (stereo unspecified) | 57.1 (≈ 149 µM)
Cc1cc(C)c2nc(Cl)c(Cl)nc2c1 | 2.7 (≈ 11.9 µM)
Cc1ccc(NS(=O)(=O)c2ccc(NC(=O)C3CC3)cc2)cc1C | 6.9 (≈ 20 µM)
O=C(NCCC(=O)N1CCN(c2ccccn2)CC1)c1ccc([N+](=O)[O-])cc1 | > 57.5
Cc1cccc(CSc2nc3ccccc3c(=O)n2C)c1 | 1.2 (≈ 4.05 µM)
CSc1ncccc1C(=O)OCC(=O)NC1CC1 | > 39.9
O=S(=O)(Cc1ccccc1)Nc1ccccc1 | > 37.1
S=C(Cc1ccc(-c2ccccc2)cc1)N1CCOCC1 | 0.7 (≈ 2.35 µM)
CC(=O)c1cccc(NC(=O)CCC(=O)Oc2ccc(C)cc2)c1 | > 48.8
COCC(C)NC(=O)c1ccc2nc(-c3ccccc3)c(-c3ccccc3)nc2c1 (stereo unspecified) | 5.3 (≈ 13.3 µM)
CCCCC1(c2ccc(F)cc2)NC(=O)N(CC(=O)Nc2ccc(N3CCOCC3)cc2)C1=O (stereo unspecified) | 55.7 (≈ 119 µM)
CCCC(=O)Nc1c(C(=O)OCC)oc2ccccc12 | > 41.3
O=C(NC(=S)N1CCCC1)c1cccc([N+](=O)[O-])c1 | 39.5 (≈ 141 µM)

Structure (SMILES) | solubility kinetic [µg/mL]
Cc1ccccc1Nc1ccc2nonc2c1[N+](=O)[O-] | 0.8 (≈ 2.96 µM)
O=C(Nc1nccs1)c1ccc(COc2ccccc2Cl)o1 | 0.9 (≈ 2.69 µM)
CC1=NOC(=O)/C1=C/c1ccc2c(c1)OCO2 | 25.1 (≈ 109 µM)
CCCC(=O)Nc1ccc(C(=O)COC(=O)C2CC2)cc1 | 15.3 (≈ 52.9 µM)
Cc1cc(N2CC(C)OC(C)C2)nc(C(C)C)n1 (stereo unspecified) | 21.9 (≈ 87.8 µM)
COc1ccc(CNC(=O)CSc2nc(SC)ns2)cc1 | 26.4 (≈ 77.3 µM)
Cc1cc(SCc2ccc([N+](=O)[O-])cc2)nc(=O)[nH]1 | 24.2 (≈ 87.3 µM)
COc1ccc2c(c1)c(C(=O)O)c(C)n2CCc1ccc(OC)c(OC)c1 | > 55.4
FCCCOc1ccc(CN2CCN(c3ccccc3F)CC2)cc1 | 19.5 (≈ 56.3 µM)
COc1ccc(Cn2c(=O)oc3ccc(C)cc32)cc1 | 1.2 (≈ 4.46 µM)
C1CCC2S[C@H]3CCCCC3NC2C1 (stereo partly specified) | 25.3 (≈ 120 µM)
Cc1cc(C(=O)COC(=O)Cc2ccc(Br)cc2)c(C)n1C | 15.2 (≈ 41.7 µM)
COc1ccc2nc3oc(C(=O)NCCCOC(C)C)cc3cc2c1 | 12 (≈ 35 µM)
CCCNC(=O)N1CCN(C(c2ccccc2)c2ccccc2)CC1 | 3.9 (≈ 11.6 µM)
Cc1ccccc1CN(C)C(=O)COC(=O)c1ccc2[nH]c(C)c(C)c2c1 | 2.1 (≈ 5.76 µM)
c1ccc(-c2ccc(C(c3ccccc3)n3ccnc3)cc2)cc1 (stereo unspecified) | 0.7 (≈ 2.26 µM)
Cc1ccc(S(=O)(=O)N2CCCCC2)cc1NC(=O)Cc1cccs1 | 20.6 (≈ 54.4 µM)
O=C(CCNC(=O)c1ccc([N+](=O)[O-])cc1)NCc1cccs1 | > 50
